Assay results from patent US9975878B2, “Substituted triazine BMI-1 inhibitors” (PTC Therapeutics, Inc., priority 2013, dated 2018).

The compounds below were run on Bmi-1 protein (assay: Sandwich ELISA Assay: Bmi-1 protein level in HT-1080 cells treated with test compounds).
Format: cell-based
How it was run: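 HT-1080 cells exposed to compounds (final DMSO 0.5%) for 40-48 h at 37° C, 5% CO2, then lysed. Bmi-1 quantified by sandwich ELISA (mouse anti-Bmi-1 capture, rabbit anti-Bmi-1 detection, HRP anti-rabbit, TMB), read at OD450 with OD570 reference, against recombinant GST-Bmi-1 standard curve (0-8000 pg/mL).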
`Cc1nc2ccccc2n1-c1nc(N)nc(Nc2ccc(Cl)cc2)n1` [Cpd 150, N-(4-chlorophenyl)-6-(2-methyl-1H-benzimidazol-1-yl)-1,3,5-triazine-2,4-diamine] gave an EC50 of 10 to 100 nM. In the case of `Cc1nc2ccccc2n1-c1nc(N)nc(Nc2ccc(C#N)cc2)n1` [Cpd 151, 4-{[4-amino-6-(2-methyl-1H-benzimidazol-1-yl)-1,3,5-triazin-2-yl]amino}benzonitrile], the EC50 is reported as 100 to 3000 nM. Work on `Cc1nc2ncc(Cl)cc2n1-c1nc(N)nc(Nc2ccc(OC(F)(F)F)cc2)n1` [Cpd 152, 6-(6-chloro-2-methyl-1H-imidazo[4,5-b]pyridin-1-yl)-N-[4-(trifluoromethoxy)phenyl]-1,3,5-triazine-2,4-diamine] yielded an EC50 of 100 to 3000 nM. Compound `COc1ccc(Nc2nc(N)nc(-n3c(C4CC4)nc4ccccc43)n2)cc1` [Cpd 153, 6-(2-cyclopropyl-1H-benzimidazol-1-yl)-N-(4-methoxyphenyl)-1,3,5-triazine-2,4-diamine] has an EC50 of 1 to 10 nM. For `COc1cccc(Nc2nc(N)nc(-n3c(C4CC4)nc4ccccc43)n2)c1` [Cpd 154, 6-(2-cyclopropyl-1H-benzimidazol-1-yl)-N-(3-methoxyphenyl)-1,3,5-triazine-2,4-diamine], the EC50 was 100 to 3000 nM. In the case of `Cc1ccc(Nc2nc(N)nc(-n3c(C4CC4)nc4ccccc43)n2)cc1` [Cpd 155, 6-(2-cyclopropyl-1H-benzimidazol-1-yl)-N-(4-methylphenyl)-1,3,5-triazine-2,4-diamine], the EC50 is reported as 1 to 10 nM. In the case of `Cc1cccc(Nc2nc(N)nc(-n3c(C4CC4)nc4ccccc43)n2)c1` [Cpd 156, 6-(2-cyclopropyl-1H-benzimidazol-1-yl)-N-(3-methylphenyl)-1,3,5-triazine-2,4-diamine], the EC50 is reported as 100 to 3000 nM. `Nc1nc(Nc2ccc(Cl)cc2)nc(-n2c(C3CC3)nc3ccccc32)n1` [Cpd 157, N-(4-chlorophenyl)-6-(2-cyclopropyl-1H-benzimidazol-1-yl)-1,3,5-triazine-2,4-diamine] was tested, and the EC50 was 10 to 100 nM. Compound `N#Cc1ccc(Nc2nc(N)nc(-n3c(C4CC4)nc4ccccc43)n2)cc1` [Cpd 158, 4-{[4-amino-6-(2-cyclopropyl-1H-benzimidazol-1-yl)-1,3,5-triazin-2-yl]amino}benzonitrile] has an EC50 of 100 to 3000 nM. `CCc1nc2ccccc2n1-c1nc(N)nc(Nc2ccc(OC)cc2)n1` [Cpd 159, 6-(2-ethyl-1H-benzimidazol-1-yl)-N-(4-methoxyphenyl)-1,3,5-triazine-2,4-diamine] showed an EC50 of 1 to 10 nM. `CCc1nc2ccccc2n1-c1nc(N)nc(Nc2ccc(C)cc2)n1` [Cpd 160, 6-(2-ethyl-1H-benzimidazol-1-yl)-N-(4-methylphenyl)-1,3,5-triazine-2,4-diamine] was tested, and the EC50 was 1 to 10 nM. `CCc1nc2ccccc2n1-c1nc(N)nc(Nc2cccc(C)c2)n1` [Cpd 161, 6-(2-ethyl-1H-benzimidazol-1-yl)-N-(3-methylphenyl)-1,3,5-triazine-2,4-diamine] was tested, and the EC50 was 100 to 3000 nM. `CCc1nc2ccccc2n1-c1nc(N)nc(Nc2ccc(Cl)cc2)n1` [Cpd 162, N-(4-chlorophenyl)-6-(2-ethyl-1H-benzimidazol-1-yl)-1,3,5-triazine-2,4-diamine] showed an EC50 of 10 to 100 nM. `CCc1nc2ccccc2n1-c1nc(N)nc(Nc2ccc(C#N)cc2)n1` [Cpd 163, 4-{[4-amino-6-(2-ethyl-1H-benzimidazol-1-yl)-1,3,5-triazin-2-yl]amino}benzonitrile] showed an EC50 of 100 to 3000 nM. `COc1ccc(Nc2nc(N)nc(-n3c(C)nc4ccc(F)cc43)n2)cc1` [Cpd 164, 6-(6-fluoro-2-methyl-1H-benzimidazol-1-yl)-N-(4-methoxyphenyl)-1,3,5-triazine-2,4-diamine] was tested, and the EC50 was 1 to 10 nM. With `Cc1ccc(Nc2nc(N)nc(-n3c(C)nc4ccc(F)cc43)n2)cc1` [Cpd 165, 6-(6-fluoro-2-methyl-1H-benzimidazol-1-yl)-N-(4-methylphenyl)-1,3,5-triazine-2,4-diamine] the EC50 was 1 to 10 nM. Compound `Cc1nc2ccc(F)cc2n1-c1nc(N)nc(Nc2ccc(Cl)cc2)n1` [Cpd 166, N-(4-chlorophenyl)-6-(6-fluoro-2-methyl-1H-benzimidazol-1-yl)-1,3,5-triazine-2,4-diamine] has an EC50 of 10 to 100 nM. `Cc1nc2ccccc2n1-c1nc(N)nc(Nc2ccc(C(C)C)cc2)n1` [Cpd 167, 6-(2-methyl-1H-benzimidazol-1-yl)-N-[4-(propan-2-yl)phenyl]-1,3,5-triazine-2,4-diamine] was tested, and the EC50 was 100 to 3000 nM. In the case of `CCc1nc2ccc(F)cc2n1-c1nc(N)nc(Nc2ccc(OC)cc2)n1` [Cpd 168, 6-(2-ethyl-6-fluoro-1H-benzimidazol-1-yl)-N-(4-methoxyphenyl)-1,3,5-triazine-2,4-diamine], the EC50 is reported as 1 to 10 nM. With `CCc1nc2ccc(F)cc2n1-c1nc(N)nc(Nc2ccc(C)cc2)n1` [Cpd 169, 6-(2-ethyl-6-fluoro-1H-benzimidazol-1-yl)-N-(4-methylphenyl)-1,3,5-triazine-2,4-diamine] the EC50 was 1 to 10 nM. For `CCc1nc2ccc(F)cc2n1-c1nc(N)nc(Nc2ccc(Cl)cc2)n1` [Cpd 170, N-(4-chlorophenyl)-6-(2-ethyl-6-fluoro-1H-benzimidazol-1-yl)-1,3,5-triazine-2,4-diamine], the EC50 was 10 to 100 nM. `CCc1nc2ccc(F)cc2n1-c1nc(N)nc(Nc2ccc(OC(F)(F)F)cc2)n1` [Cpd 171, 6-(2-ethyl-6-fluoro-1H-benzimidazol-1-yl)-N-[4-(trifluoromethoxy)phenyl]-1,3,5-triazine-2,4-diamine] gave an EC50 of 100 to 3000 nM. For `Cc1nc2ccc(F)cc2n1-c1nc(N)nc(Nc2ccc(OC(F)(F)F)cc2)n1` [Cpd 172, 6-(6-fluoro-2-methyl-1H-benzimidazol-1-yl)-N-[4-(trifluoromethoxy)phenyl]-1,3,5-triazine-2,4-diamine], the EC50 was 100 to 3000 nM. `CCc1nc2cc(F)ccc2n1-c1nc(N)nc(Nc2ccc(OC)cc2)n1` [Cpd 173, 6-(2-ethyl-5-fluoro-1H-benzimidazol-1-yl)-N-(4-methoxyphenyl)-1,3,5-triazine-2,4-diamine] showed an EC50 of 1 to 10 nM. With `CCc1nc2cc(F)ccc2n1-c1nc(N)nc(Nc2ccc(C)cc2)n1` [Cpd 174, 6-(2-ethyl-5-fluoro-1H-benzimidazol-1-yl)-N-(4-methylphenyl)-1,3,5-triazine-2,4-diamine] the EC50 was 10 to 100 nM. `CCc1nc2cc(F)ccc2n1-c1nc(N)nc(Nc2ccc(Cl)cc2)n1` [Cpd 175, N-(4-chlorophenyl)-6-(2-ethyl-5-fluoro-1H-benzimidazol-1-yl)-1,3,5-triazine-2,4-diamine] was tested, and the EC50 was 100 to 3000 nM. `COc1ccc(Nc2nc(N)nc(-n3c(C4CC4)nc4ccc(F)cc43)n2)cc1` [Cpd 176, 6-(2-cyclopropyl-6-fluoro-1H-benzimidazol-1-yl)-N-(4-methoxyphenyl)-1,3,5-triazine-2,4-diamine] was tested, and the EC50 was 10 to 100 nM. `Cc1ccc(Nc2nc(N)nc(-n3c(C4CC4)nc4ccc(F)cc43)n2)cc1` [Cpd 177, 6-(2-cyclopropyl-6-fluoro-1H-benzimidazol-1-yl)-N-(4-methylphenyl)-1,3,5-triazine-2,4-diamine] gave an EC50 of 1 to 10 nM. `Nc1nc(Nc2ccc(Cl)cc2)nc(-n2c(C3CC3)nc3ccc(F)cc32)n1` [Cpd 178, N-(4-chlorophenyl)-6-(2-cyclopropyl-6-fluoro-1H-benzimidazol-1-yl)-1,3,5-triazine-2,4-diamine] gave an EC50 of 10 to 100 nM. In the case of `COc1ccc(Nc2nc(N)nc(-n3c(C)nc4c(F)cccc43)n2)cc1` [Cpd 179, 6-(4-fluoro-2-methyl-1H-benzimidazol-1-yl)-N-(4-methoxyphenyl)-1,3,5-triazine-2,4-diamine], the EC50 is reported as 1 to 10 nM. `Cc1ccc(Nc2nc(N)nc(-n3c(C)nc4c(F)cccc43)n2)cc1` [Cpd 180, 6-(4-fluoro-2-methyl-1H-benzimidazol-1-yl)-N-(4-methylphenyl)-1,3,5-triazine-2,4-diamine] gave an EC50 of 1 to 10 nM. `Cc1nc2c(F)cccc2n1-c1nc(N)nc(Nc2ccc(Cl)cc2)n1` [Cpd 181, N-(4-chlorophenyl)-6-(4-fluoro-2-methyl-1H-benzimidazol-1-yl)-1,3,5-triazine-2,4-diamine] showed an EC50 of 100 to 3000 nM. Compound `COc1ccc(Nc2nc(N)nc(-n3c(C4CC4)nc4c(F)cccc43)n2)cc1` [Cpd 182, 6-(2-cyclopropyl-4-fluoro-1H-benzimidazol-1-yl)-N-(4-methoxyphenyl)-1,3,5-triazine-2,4-diamine] has an EC50 of 1 to 10 nM. `Cc1ccc(Nc2nc(N)nc(-n3c(C4CC4)nc4c(F)cccc43)n2)cc1` [Cpd 183, 6-(2-cyclopropyl-4-fluoro-1H-benzimidazol-1-yl)-N-(4-methylphenyl)-1,3,5-triazine-2,4-diamine] showed an EC50 of 10 to 100 nM. `Nc1nc(Nc2ccc(Cl)cc2)nc(-n2c(C3CC3)nc3c(F)cccc32)n1` [Cpd 184, N-(4-chlorophenyl)-6-(2-cyclopropyl-4-fluoro-1H-benzimidazol-1-yl)-1,3,5-triazine-2,4-diamine] showed an EC50 of 10 to 100 nM. In the case of `COc1ccc(Nc2nc(N)nc(-n3c(C)nc4c(F)cc(F)cc43)n2)cc1` [Cpd 185, 6-(4,6-difluoro-2-methyl-1H-benzimidazol-1-yl)-N-(4-methoxyphenyl)-1,3,5-triazine-2,4-diamine], the EC50 is reported as 1 to 10 nM. `Cc1ccc(Nc2nc(N)nc(-n3c(C)nc4c(F)cc(F)cc43)n2)cc1` [Cpd 186, 6-(4,6-difluoro-2-methyl-1H-benzimidazol-1-yl)-N-(4-methylphenyl)-1,3,5-triazine-2,4-diamine] gave an EC50 of 1 to 10 nM. `Cc1nc2c(F)cc(F)cc2n1-c1nc(N)nc(Nc2ccc(Cl)cc2)n1` [Cpd 187, N-(4-chlorophenyl)-6-(4,6-difluoro-2-methyl-1H-benzimidazol-1-yl)-1,3,5-triazine-2,4-diamine] gave an EC50 of 100 to 3000 nM. Compound `CCc1nc2c(F)cc(F)cc2n1-c1nc(N)nc(Nc2ccc(OC)cc2)n1` [Cpd 188, 6-(2-ethyl-4,6-difluoro-1H-benzimidazol-1-yl)-N-(4-methoxyphenyl)-1,3,5-triazine-2,4-diamine] has an EC50 of 1 to 10 nM. For `CCc1nc2c(F)cc(F)cc2n1-c1nc(N)nc(Nc2ccc(C)cc2)n1` [Cpd 189, 6-(2-ethyl-4,6-difluoro-1H-benzimidazol-1-yl)-N-(4-methylphenyl)-1,3,5-triazine-2,4-diamine], the EC50 was 10 to 100 nM. `CCc1nc2c(F)cc(F)cc2n1-c1nc(N)nc(Nc2ccc(Cl)cc2)n1` [Cpd 190, N-(4-chlorophenyl)-6-(2-ethyl-4,6-difluoro-1H-benzimidazol-1-yl)-1,3,5-triazine-2,4-diamine] was tested, and the EC50 was 10 to 100 nM.
